Reference: patent US5424442A, “Water-soluble methine compounds useful in photographic silver halide emulsion containing the same” (Fuji Photo Film Co., Ltd., priority 1990, dated 1995)

Tests used:
[1] = Spectral sensitization of photographic silver halide emulsion; design: Yellow filter sensitivity (SY) / Red filter sensitivity (SR): scale not given here; conditions: Table 4
Description: A silver halide emulsion comprising pure silver bromide and having a cubic crystal form (the area ratio of the plane to the entire surface area of grain being 92%) was prepared and subjected to a sulfur sensitization treatment. The average diameter of silver halide grains contained in the emulsion was 0.68 μm, and 0.74 mol of silver halide per kg of emulsion was contained in the emulsion. One kg of the emulsion was weighed in each of pots. An aqueous solution of each of the compounds of formula (I) indicated in Tables 4 and 5 was added to the pot, and the mixture was mixed with stirring at 40° C. For the purpose of comparison, comparative compounds 1 and 2 wherein counter ion was iodide were dispersed in water and added to respective pots.
Further, 4-hydroxy-6-methyl-1,3,3a,7-tetraazaindene in an amount of 0.1 g/kg of emulsion, sodium salt of 2,4-dichloro-6-hydroxy-1,3,5-triazine in an amount of 0.1 g/kg of emulsion and sodium dodecylbenzenesulfonate in an amount of 0.1 g/kg of emulsion in order were added thereto. The emulsion was then coated on a polyethylene terephthalate film to obtain a photographic material.
Each of these samples was exposed through an optical wedge for 5 seconds by using a yellow filter (SC-50, a product of Fuji Photo Film Co., Ltd.) or a red filter (SC-60, a product of Fuji Photo Film Co., Ltd.) and tungsten light (5400° K.).
A spectrogram was obtained by using a grating spectrograph having a tungsten light source of 2666° K., and the maximum sensitization was measured.
After exposure, the samples were developed at 20° C for 4 minutes by using the following developing solution. The density of each of the developed films was measured by using a densitometer (manufactured by Fuji Photo Film Co., Ltd. Spectral sensitivity, that is, yellow filter sensitivity (SY) or red filter sensitivity (SR), sensitivity (SB) in the sensitive region inherent in silver halide, and fog were determined. Sensitivity was determined when the standard point of optical density was referred to as (Fog+0.2). Composition of Developing Solution […]
Two volumes of water were added thereto to obtain a working solution when used.

[2] = Solubility in solvents (dissolution in incubator, filtration through microfilter, visible absorption); format: physicochemical; conditions: 37° C., 12 hours, Table 2
Description: The solubility of some of the compounds within formula (I) was accurately measured.
The measurement of solubility was made in the following manner.

CCn1c(=Cc2oc3c4ccccc4ccc3[n+]2CC)sc(=C2Sc3ccccc3N2C)c1=O [Compound 134]
Maximum Sensitization ([1]; spectrogram, tungsten light source of 2666° K.): 520 nm | Yellow filter sensitivity (SY) ([1]; yellow filter SC-50, 5 seconds exposure, standard point Fog+0.2): 1350 | Solubility in MeOH ([2]; MeOH, 720 min): > 10000 µg/mL | solubility at 12 h ([2]; water, H2O, read-out: Solubility in H2O): 6900 µg/mL
